Assay results: US11066445B2, “Immunomodulators acting as antagonists of PD-1” (Bristol-Myers Squibb Company, priority 2017, dated 2021)
Starred links: 1 amine or outer side, 2 acyl side, 3 side chain; linkers in the order of their positions; H or OH if unused. Positions of bridges follow the written chain, without caps; N, C: chain ends. Non-standard residues stand in square brackets, D forms with d. Residues, ends and D or L forms follow the SMILES beside them. *: point of attachment. X3 = O=C(O)CCCCCCCCCCCCCCCCC(=O)N[C@@H](CCC(=O)NCCCOCCOCCOCCCN*)C(=O)O; Trp(1-CH2CONHSO2Me) = CS(=O)(=O)NC(=O)Cn1cc(C[C@H](N)C(=O)O)c2ccccc21; Trp(4-aza,1-CH2COOH) = N[C@@H](Cc1cn(CC(=O)O)c2cccnc12)C(=O)O; X6 = COc1ccc2c(c1)c(C[C@H](N[*:1])C(=O)[*:2])cn2CC(=O)O; Hyp = O=C(O)[C@@H]1C[C@@H](O)CN1; NMeNle = CCCC[C@H](NC)C(=O)O; NMeA = CN[C@@H](C)C(=O)O; Dab = NCC[C@H](N)C(=O)O; Dap = NC[C@H](N)C(=O)O; Sar = CNCC(=O)O

Each compound was assayed against T1, PD-1-Ig binding to PD-L1-TVMV-His (PD-L1-His) (Homo sapiens, UniProt Q9NZQ7) (assay: PD-1/PD-L1 Homogenous Time-Resolved Fluorescence (HTRF) binding assay). Details: PD-1-Ig (20 nM) / PD-L1-His (10 nM); range classes; read-out: LE HTRF hPD1 hPDL1 IC50.
T1 construct: hPDL1(19-239)-TVMV-His; TVMV protease cleavage site (C); made in house; host or cells: HEK293T cells
T1 sequence (Q9NZQ7 with tags, fused parts or gaps): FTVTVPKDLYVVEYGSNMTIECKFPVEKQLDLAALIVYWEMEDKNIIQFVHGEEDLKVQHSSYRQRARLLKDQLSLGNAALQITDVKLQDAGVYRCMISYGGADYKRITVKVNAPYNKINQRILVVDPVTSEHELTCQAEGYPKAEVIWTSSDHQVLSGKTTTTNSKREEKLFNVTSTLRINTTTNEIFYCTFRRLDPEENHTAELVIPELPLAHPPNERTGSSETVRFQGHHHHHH
Excerpt: Methods for Testing the Ability of Macrocyclic Peptides to Compete for the Binding of Pd-1 to Pd-L1 Using Homogenous Time-Resolved Fluorescence (HTRF) Binding Assays
The ability of the macrocyclic peptides of the present disclosure to bind to PD-L1 was investigated using a PD-1/PD-L1 Homogenous Time-Resolved Fluorescence (HTRF) binding assay.
Homogenous Time-Resolved Fluorescence (HTRF) Assays of Binding of Soluble PD-1 to Soluble PD-L1. Soluble PD-1 and soluble PD-L1 refers to proteins with carboxyl-end truncations that remove the transmembrane-spanning regions and are fused to heterologous sequences, specifically the Fc portion of the human immunoglobuling G sequence (Ig) or the hexahistidine epitope tag (His). All binding studies were performed in an HTRF assay buffer consisting of dPBS supplemented with 0.1% (w/v) bovine serum albumin and 0.05% (v/v) Tween-20. For the PD-1-Ig/PD-L1-His binding assay, inhibitors were pre-incubated with PD-L1-His (10 nM final) for 15 m in 4 μl of assay buffer, followed by addition of PD-1-Ig (20 nM final) in 1 μl of assay buffer and further incubation for 15 m. PD-L1 fusion proteins from either human, cynomologous macaques, mouse, or other species were used. HTRF detection was achieved using europium crypate-labeled anti-Ig monoclonal antibody (1 nM final) and allophycocyanin (APC) labeled anti-His monoclonal antibody (20 nM final). Antibodies were diluted in HTRF detection buffer and 5 μl was dispensed on top of binding reaction. The reaction was allowed to equilibrate for 30 minutes and signal (665 nm/620 nm ratio) was obtained using an EnVision fluorometer. Additional binding assays were established between PD-1-Ig/PD-L2-His (20 and 5 nM, respectively), CD80-His/PD-L1-Ig (100 and 10 nM, respectively) and CD80-His/CTLA4-Ig (10 and 5 nM, respectively). Binding/competition studies between biotinylated Compound No. 71 and human PD-L1-His were performed as follows. Macrocyclic peptide inhibitors were pre-incubated with PD-L1-His (10 nM final) for 60 minutes in 4 μl of assay buffer followed by addition of biotinylated Compound No. 71 (0.5 nM final) in 1 μl of assay buffer. Binding was allowed to equilibrate for 30 minutes followed by addition of europium crypated labeled Streptavidin (2.5 pM final) and APC-labeled anti-His (20 nM final) in 5 μl of HTRF buffer. The reaction was allowed to equilibrate for 30 m and signal (665 nm/620 nm ratio) was obtained using an EnVision fluorometer.
Recombinant Proteins. Carboxyl-truncated human PD-1 (amino acids 25-167) with a C-terminal human Ig epitope tag [hPD-1 (25-167)-3S-IG] and human PD-L1 (amino acids 18-239) with a C-terminal His epitope tag [hPD-L1(19-239)-tobacco vein mottling virus protease cleavage site (TVMV)-His] were expressed in HEK293T cells and purified sequentially by recombinant Protein A affinity chromatography and size exclusion chromatography. Human PD-L2-His (Sino Biologicals), CD80-His (Sino Biologicals), CTLA4-Ig (RnD Systems) were all obtained through commercial sources.
Ranges are as follows: A=0.010-0.060 μM; B=0.0011-0.009 μM; C=0.0003-0.0010 μM.
Work on CCCC[C@H]1C(=O)N(C)[C@@H](CCCC)C(=O)N[C@@H](CC(C)C)C(=O)N[C@H](C(=O)NCC(=O)N[C@@H](Cc2cn(CCOCCOCCOCCOCCOCCOCCOCCOCCOCCOCCOCCNC(=O)CC[C@H](NC(=O)CCCCCCCCCCCCCCCCC(=O)O)C(=O)O)nn2)C(=O)O)CSCC(=O)N[C@@H](Cc2ccc(O)cc2)C(=O)N(C)[C@@H](C)C(=O)N[C@@H](CC(N)=O)C(=O)N2CCC[C@H]2C(=O)N[C@@H](CN)C(=O)N[C@@H](CC(C)C)C(=O)N2C[C@H](O)C[C@H]2C(=O)N[C@@H](Cc2c[nH]c3ccccc23)C(=O)N[C@@H](CCN)C(=O)N[C@@H](Cc2cn(CC(=O)O)c3ncccc23)C(=O)N1C [Example 31] yielded an IC50 of 0.3 to 1 nM.
CCCC[C@H]1C(=O)N(C)[C@@H](CCCC)C(=O)N[C@@H](CC(C)C)C(=O)N[C@H](C(=O)NCC(=O)N[C@@H](CC(=O)NCCCOCCOCCOCCCNC(=O)CC[C@H](NC(=O)CCCCCCCCCCCCCCCCC(=O)O)C(=O)O)C(=O)O)CSCC(=O)N[C@@H](Cc2ccc(O)cc2)C(=O)N(C)[C@@H](C)C(=O)N[C@@H](CC(N)=O)C(=O)N(C)CC(=O)N[C@@H](CN)C(=O)N[C@@H](CC(C)C)C(=O)N2C[C@H](O)C[C@H]2C(=O)N[C@@H](Cc2c[nH]c3ccccc23)C(=O)N[C@@H](CCN)C(=O)N[C@@H](Cc2cn(CC(=O)NS(C)(=O)=O)c3ccccc23)C(=O)N1C [Example 2] ({CH2CO}-Y[NMeA]N[Sar][Dap]L[Hyp]W[Dab][Trp(1-CH2CONHSO2Me)][NMeNle][NMeNle]LCGD(X3)-OH; thioether N-14) gave an IC50 of 1.1 to 9 nM.
Work on CCCC[C@H]1C(=O)N(C)[C@@H](CCCC)C(=O)N[C@@H](CC(C)C)C(=O)N[C@H](C(=O)NCC(=O)NCCCOCCOCCOCCCNC(=O)CC[C@H](NC(=O)CCCCCCCCCCCCCCCCC(=O)O)C(=O)O)CSCC(=O)N[C@@H](Cc2ccc(O)cc2)C(=O)N(C)[C@@H](C)C(=O)N[C@@H](CC(N)=O)C(=O)N2CCC[C@H]2C(=O)N[C@@H](CN)C(=O)N[C@@H](CC(C)C)C(=O)N2C[C@H](O)C[C@H]2C(=O)N[C@@H](Cc2c[nH]c3ccccc23)C(=O)N[C@@H](CCN)C(=O)N[C@@H](Cc2cn(CC(=O)NS(C)(=O)=O)c3ccccc23)C(=O)N1C [Example 3] ({CH2CO}-Y[NMeA]NP[Dap]L[Hyp]W[Dab][Trp(1-CH2CONHSO2Me)][NMeNle][NMeNle]LCG-X3; thioether N-14) yielded an IC50 of 1.1 to 9 nM.
With CCCC[C@H]1C(=O)N(C)[C@@H](CCCC)C(=O)N[C@@H](CC(C)C)C(=O)N[C@H](C(=O)NCC(=O)N[C@@H](CC(=O)NCCCOCCOCCOCCCNC(=O)CC[C@H](NC(=O)CCCCCCCCCCCCCCCCC(=O)O)C(=O)O)C(=O)O)CSCC(=O)N[C@@H](Cc2ccc(O)cc2)C(=O)N(C)[C@@H](C)C(=O)N[C@@H](CC(N)=O)C(=O)N2CCC[C@H]2C(=O)N[C@@H](CN)C(=O)N[C@@H](CC(C)C)C(=O)N2C[C@H](O)C[C@H]2C(=O)N[C@@H](Cc2c[nH]c3ccccc23)C(=O)N[C@@H](CCN)C(=O)N[C@@H](Cc2cn(CC(=O)O)c3cccnc23)C(=O)N1C [Example 7] ({CH2CO}-Y[NMeA]NP[Dap]L[Hyp]W[Dab][Trp(4-aza,1-CH2COOH)][NMeNle][NMeNle]LCGD(X3)-OH; thioether N-14) the IC50 was 1.1 to 9 nM.
CCCC[C@H]1C(=O)N(C)[C@@H](CCCC)C(=O)N[C@@H](CC(C)C)C(=O)N[C@H](C(=O)NCC(=O)N[C@@H](CC(=O)NCCCOCCOCCOCCCNC(=O)CC[C@H](NC(=O)CCCCCCCCCCCCCCCCC(=O)O)C(=O)O)C(=O)O)CSCC(=O)N[C@@H](Cc2ccc(O)cc2)C(=O)N(C)[C@@H](C)C(=O)N[C@@H](CC(N)=O)C(=O)N2CCC[C@H]2C(=O)N[C@@H](CN)C(=O)N[C@@H](CC(C)C)C(=O)N2C[C@H](O)C[C@H]2C(=O)N[C@@H](Cc2c[nH]c3ccccc23)C(=O)N[C@@H](CCN)C(=O)N[C@@H](Cc2cn(CC(=O)O)c3ccc(OC)cc23)C(=O)N1C [Example 12] ({CH2CO}-Y[NMeA]NP[Dap]L[Hyp]W[Dab][X6][NMeNle][NMeNle]LCGD(X3)-OH; thioether N-14) gave an IC50 of 0.3 to 1 nM.
